Reference: the supplement of paper PMC10307832

Assays:
Assay in all cases: relative viability (nuclei count vs DMSO), 5 days (fraction); higher = more cells survive
PC-3 [JPC-3] = tested on: PC-3 [JPC-3]
In short: (§1)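 Relative viability equals treated-well nuclei counts divided by vehicle-well nuclei counts. Counts came from 4× images of lung cancer cell lines grown in 1536-well plates for 5 days after pin-tool dosing on the day after seeding. Dosing used one drug alone or a fixed anchor-drug dose plus five library-drug doses (not always all listed) in √10 steps, and values are medians of duplicate plates.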

A-427 = tested on: A-427
In short: as §1

NCI-H1915 = tested on: NCI-H1915
In short: as §1

NCI-H2347 = tested on: NCI-H2347
In short: as §1

SK-LU-1 = tested on: SK-LU-1
In short: as §1

NCI-H1975 = tested on: NCI-H1975
In short: as §1

NCI-H358 = tested on: NCI-H358
In short: as §1

HCC-78 = tested on: HCC-78
In short: as §1

NCI-H1734 = tested on: NCI-H1734
In short: as §1

LXF-289 = tested on: LXF-289
In short: as §1

NCI-H2126 = tested on: NCI-H2126
In short: as §1

NCI-H1755 = tested on: NCI-H1755
In short: as §1

HCC-15 = tested on: HCC-15
In short: as §1

RERF-LC-KJ = tested on: RERF-LC-KJ
In short: as §1

LC-2-ad = tested on: LC-2-ad
In short: as §1

NCI-H647 = tested on: NCI-H647
In short: as §1

HOP-62 = tested on: HOP-62
In short: as §1

SW 1573 = tested on: SW 1573
In short: as §1

NCI-H1792 = tested on: NCI-H1792
In short: as §1

NCI-H2228 = tested on: NCI-H2228
In short: as §1

With `CC(=O)O[C@@]12CO[C@@H]1C[C@H](O)[C@@]1(C)C(=O)[C@H](O)C3=C(C)[C@@H](OC(=O)[C@H](O)[C@@H](NC(=O)OC(C)(C)C)c4ccccc4)C[C@@](O)([C@@H](OC(=O)c4ccccc4)[C@H]21)C3(C)C` [Docetaxel] + CS(=O)(=O)N1CCN(Cc2cc3nc(-c4cccc5[nH]ncc45)nc(N4CCOCC4)c3s2)CC1 [Pictilisib] (partner 1 µM) the relative viability (PC-3 [JPC-3]; first compound 0.0002 µM) was 0.693, the relative viability (PC-3 [JPC-3]; first compound 0.000632 µM) was 0.715 and the relative viability (PC-3 [JPC-3]; first compound 0.002 µM) was 0.454. The relative viability (PC-3 [JPC-3]; first compound 0.006325 µM) was 0.329, the relative viability (PC-3 [JPC-3]; first compound 0.02 µM) was 0.229 and the relative viability (A-427; first compound 0.0002 µM) was 0.766. It also gave a relative viability (A-427; first compound 0.000632 µM) of 0.885, a relative viability (A-427; first compound 0.002 µM) of 0.488 and a relative viability (A-427; first compound 0.006325 µM) of 0.23. The relative viability (A-427; first compound 0.02 µM) was 0.158, the relative viability (NCI-H1915; first compound 0.0002 µM) was 0.857 and the relative viability (NCI-H1915; first compound 0.000632 µM) was 0.931. For the same molecule, the relative viability (NCI-H1915; first compound 0.002 µM) was 0.275, the relative viability (NCI-H1915; first compound 0.006325 µM) was 0.257 and the relative viability (NCI-H1915; first compound 0.02 µM) was 0.11. The relative viability (NCI-H2347; first compound 0.0002 µM) was 0.462, the relative viability (NCI-H2347; first compound 0.000632 µM) was 0.564 and the relative viability (NCI-H2347; first compound 0.002 µM) was 0.696. It also gave a relative viability (NCI-H2347; first compound 0.006325 µM) of 0.647, a relative viability (NCI-H2347; first compound 0.02 µM) of 0.066 and a relative viability (SK-LU-1; first compound 0.0002 µM) of 0.608. For the same molecule, the relative viability (SK-LU-1; first compound 0.000632 µM) was 0.305, the relative viability (SK-LU-1; first compound 0.002 µM) was 0.253 and the relative viability (SK-LU-1; first compound 0.006325 µM) was 0.181. It also gave a relative viability (SK-LU-1; first compound 0.02 µM) of 0.171, a relative viability (NCI-H1975; first compound 0.0002 µM) of 0.3 and a relative viability (NCI-H1975; first compound 0.000632 µM) of 0.261. The relative viability (NCI-H1975; first compound 0.002 µM) was 0.213, the relative viability (NCI-H1975; first compound 0.006325 µM) was 0.156 and the relative viability (NCI-H1975; first compound 0.02 µM) was 0.121. The relative viability (NCI-H358; first compound 0.0002 µM) was 0.321, the relative viability (NCI-H358; first compound 0.000632 µM) was 0.34 and the relative viability (NCI-H358; first compound 0.002 µM) was 0.283. The relative viability (NCI-H358; first compound 0.02 µM) was 0.157, the relative viability (HCC-78; first compound 0.0002 µM) was 0.204 and the relative viability (HCC-78; first compound 0.000632 µM) was 0.185. For the same molecule, the relative viability (HCC-78; first compound 0.002 µM) was 0.172, the relative viability (HCC-78; first compound 0.006325 µM) was 0.166 and the relative viability (HCC-78; first compound 0.02 µM) was 0.204. It also gave a relative viability (NCI-H1734; first compound 0.0002 µM) of 0.462, a relative viability (NCI-H1734; first compound 0.000632 µM) of 0.387 and a relative viability (NCI-H1734; first compound 0.002 µM) of 0.347. It also gave a relative viability (NCI-H1734; first compound 0.006325 µM) of 0.335, a relative viability (NCI-H1734; first compound 0.02 µM) of 0.213 and a relative viability (LXF-289; first compound 0.0002 µM) of 0.815. For the same molecule, the relative viability (LXF-289; first compound 0.000632 µM) was 0.653, the relative viability (LXF-289; first compound 0.002 µM) was 0.212 and the relative viability (LXF-289; first compound 0.006325 µM) was 0.114. The relative viability (LXF-289; first compound 0.02 µM) was 0.0576, the relative viability (NCI-H2126; first compound 0.0002 µM) was 0.518 and the relative viability (NCI-H2126; first compound 0.000632 µM) was 0.541. It also gave a relative viability (NCI-H2126; first compound 0.002 µM) of 0.393, a relative viability (NCI-H2126; first compound 0.006325 µM) of 0.362 and a relative viability (NCI-H2126; first compound 0.02 µM) of 0.257. For the same molecule, the relative viability (NCI-H1755; first compound 0.0002 µM) was 0.346, the relative viability (NCI-H1755; first compound 0.000632 µM) was 0.306 and the relative viability (NCI-H1755; first compound 0.002 µM) was 0.264. The relative viability (NCI-H1755; first compound 0.006325 µM) was 0.249, the relative viability (NCI-H1755; first compound 0.02 µM) was 0.183 and the relative viability (HCC-15; first compound 0.0002 µM) was 0.679. For the same molecule, the relative viability (HCC-15; first compound 0.000632 µM) was 0.491, the relative viability (HCC-15; first compound 0.002 µM) was 0.226 and the relative viability (RERF-LC-KJ; first compound 0.0002 µM) was 0.525. For the same molecule, the relative viability (RERF-LC-KJ; first compound 0.000632 µM) was 0.408, the relative viability (RERF-LC-KJ; first compound 0.002 µM) was 0.189 and the relative viability (RERF-LC-KJ; first compound 0.006325 µM) was 0.223. It also gave a relative viability (RERF-LC-KJ; first compound 0.02 µM) of 0.104, a relative viability (LC-2-ad; first compound 0.0002 µM) of 0.29 and a relative viability (LC-2-ad; first compound 0.002 µM) of 0.106. The relative viability (LC-2-ad; first compound 0.006325 µM) was 0.113, the relative viability (LC-2-ad; first compound 0.02 µM) was 0.0847 and the relative viability (NCI-H647; first compound 0.0002 µM) was 0.293. It also gave a relative viability (NCI-H647; first compound 0.000632 µM) of 0.206, a relative viability (NCI-H647; first compound 0.002 µM) of 0.138 and a relative viability (NCI-H647; first compound 0.006325 µM) of 0.117. For the same molecule, the relative viability (NCI-H647; first compound 0.02 µM) was 0.0727, the relative viability (HOP-62; first compound 0.0002 µM) was 0.75 and the relative viability (HOP-62; first compound 0.000632 µM) was 0.395. The relative viability (HOP-62; first compound 0.02 µM) was 0.101, the relative viability (SW 1573; first compound 0.0002 µM) was 0.372 and the relative viability (SW 1573; first compound 0.000632 µM) was 0.314. The relative viability (SW 1573; first compound 0.002 µM) was 0.196, the relative viability (SW 1573; first compound 0.006325 µM) was 0.153 and the relative viability (SW 1573; first compound 0.02 µM) was 0.144. It also gave a relative viability (NCI-H1792; first compound 0.0002 µM) of 0.274, a relative viability (NCI-H1792; first compound 0.000632 µM) of 0.273 and a relative viability (NCI-H1792; first compound 0.002 µM) of 0.178. The relative viability (NCI-H1792; first compound 0.02 µM) was 0.073, the relative viability (NCI-H2228; first compound 0.0002 µM) was 0.291 and the relative viability (NCI-H2228; first compound 0.000632 µM) was 0.153. For the same molecule, the relative viability (NCI-H2228; first compound 0.002 µM) was 0.138, the relative viability (NCI-H2228; first compound 0.006325 µM) was 0.18 and the relative viability (NCI-H2228; first compound 0.02 µM) was 0.131.
